Reference: patent publication US8791098B2 (priority 2008, dated 2014)
Values after ≈ are worked out from the molar mass of the structure shown. Where two headings read alike, the source gives them in different places.

Tests used:
HL-60 cells = test: cells; settings: for anti-proliferation effects: HL-60, concentrations up to 100 ng/ml
Experimental: A given number of cells were cultivated in 96-well plates with serial dilutions of the drugs up to 100 ng/ml. Tubulysin A is used as a positive control, whereas methanol is used as a negative control. After 5 days of incubation the metabolic activities of the cells were measured using MTT-assay as described under the methods section.
The effect of pre-tubulysin 816 and 827 was tested with regard to the growth of other cell lines, including the mouse connective tissues fibroblast L929, the human lung carcinoma cell line A549, the human colon adenocarcinoma cell line SW-480, and the human histiocytic lymphoma cell line U937, in addition to the human myeloid leukemia cell line HL-60.

COS-7 = test: cells; assay type: cell-based, African green monkey; settings: COS-7, average of two measurements
Experimental: (§1) Cytotoxicity testing of pretubulysin (AU827), N-desmethyl-pretubulysin (AU816) and Tubulysin A and D was performed as follows: Cells were seeded at 6×10^3 cells per well of 96-well plates in 180 μl complete medium and directly treated with varying concentrations of (pre-)tubulysins diluted in methanol. Each compound was tested in duplicate as well as the internal methanol control. After 5 d incubation, 20 μl of 5 mg/ml MTT (Thiazolyl blue tetrazolium bromide) in PBS was added per well and it was further incubated for 2 h at 37° C. The medium was then discarded and cells were washed with 100 μl PBS before adding 100 μl 2-propanol/10 N HCl (250:1) in order to dissolve formazan granules.
(§2) The absorbance at 570 nm was measured using a microplate reader (EL808, Bio-Tek Instruments Inc.), and cell viability was expressed as percentage relative to the respective methanol control. IC50 values were obtained by plotting relative growth inhibition in % against the compound concentration on a logarithmic scale. After sigmoidal curve fitting IC50 values can be determined. The IC50[per ml] are shown in the following table (values represent the average of two measurements): […]

L929 [1] = test: cells; assay type: cell-based, mouse; settings: L929, average of two measurements
Experimental: as §1, §2

A431 = test: cells; assay type: cell-based, human; settings: A431, average of two measurements
Experimental: as §1, §2

A549 = test: cells; assay type: cell-based, human; settings: A549, average of two measurements
Experimental: as §1, §2

HEK293T = test: cells; assay type: cell-based, human; settings: average of two measurements
Experimental: as §1, §2

HL-60 = test: cells; assay type: cell-based, human; settings: HL-60, average of two measurements
Experimental: as §1, §2

HepG2 = test: cells; assay type: cell-based, human; settings: HepG2, average of two measurements
Experimental: as §1, §2

K562 = test: cells; assay type: cell-based, human; settings: K562, average of two measurements
Experimental: as §1, §2

KB3.1 = test: cells; assay type: cell-based, human; settings: KB3.1, average of two measurements
Experimental: as §1, §2

SH-SY5Y = test: cells; assay type: cell-based, human; settings: average of two measurements
Experimental: as §1, §2

SW480 = test: cells; assay type: cell-based, human; settings: SW480, average of two measurements
Experimental: as §1, §2

U937 [2] = test: cells; assay type: cell-based, human; settings: U937, average of two measurements
Experimental: as §1, §2

[3] = system: U-2 OS human osteosarcoma cells; test: cells; assay type: cell-based; settings: average of two measurements
Experimental: as §1
The absorbance at 570 nm was measured using a microplate reader (EL808, Bio-Tek Instruments Inc.), and cell viability was expressed as percentage relative to the respective methanol control. IC50 values were obtained by plotting relative growth inhibition in % against the compound concentration on a logarithmic scale. After sigmoidal curve fitting IC50 values can be determined. The IC50[per ml] are shown in the following table (values represent the average of two measurements):
Similarly cytotoxicity testing of Pretubulysin-related compounds in U-2 OS human osteosarcoma cells was performed and was further compared with AU 339 and AU 954, compounds mentioned in WO2008/106080 and WO2004/046170. The IC50 values are shown in the following table (values represent the average of two measurements): […]

PtK2 cells = assay type: cell-based; settings: 24 hours incubation
Experimental: Cell staining: Ptk2 cells were seeded on round glass coverslips (13 mm in diameter) in 4-well plates. Cells were incubated with the drugs to the given times as indicated for each experiment. For staining the microtubules and the nuclei, cells were firstly fixed with cold (−20° C.) acetone/methanol (1:1) for 10 min. For labelling the microtubules, cells were incubated with a primary monoclonal antibody against α-tubulin (1:500 Sigam) for 45 min at 37° C., followed by a secondary anti-mouse IgG antibody conjugated with Alexa488 (1:2000; Molecular probes) under the same incubations conditions. The nuclei were stained with DAPI (1 μg/ml in PBS). The cells were washed with phosphate buffer saline (PBS) between incubations. Coverslips were mounted by using Prolong Antifade (Molecular Probes) and imaged through a fluorescence microscope (LSM-Zeiss) with appropriate filter set.
Tubulysin A and D are known to induce de-polymerization of the interphase microtubules of mammalian cells and additionally induce a multi-polar spindle pool in mitotic cells (Khalil, M. et al., Chembiochem. 7, 678-683 (2006); Sasse, F., Menche, D. Nat. Chem. Biol. 3, 87-89 (2007)). Here the effect of pre-tubulysin treatment on the morphologies of microtubules and microtubules related structures in PtK2 cells was tested. PtK2 cells were seeded onto glass cover clips in 4 well plates and cultivated for 24 or 48 hours under growth conditions. The cells were then treated with different concentrations of tubulysin A, tubulysin D, pre-tubulysin-816 or pre-tubulysin-827. The control cells were treated only with equivalent amount of methanol (solvent). The cells were thin incubated for further 24 hours before they were fixed as described under the methods section. Fixed cells were then washed with PBS and finally labeled with anti-α-tubulin primary antibodies followed by anti-mouse-alexa-488 secondary antibodies to visualize the microtubules. The nuclei were stained with DAPI.

cancer cell lines = settings: growth inhibition of cancer cell lines; cited from earlier work
L929 [4] = test: Anti-proliferation MTT assay (Example 2, Table 1); assay type: cell-based; settings: L929 mouse connective tissue fibroblast
U937 [5] = test: Anti-proliferation MTT assay (Example 2, Table 1); assay type: cell-based; settings: U937 human histiocytic lymphoma
[6] = Homo sapiens, U2OS, comparison with prior art compounds, read-out: IC50

CC[C@H](C)[C@H](NC(=O)CN(C)C)C(=O)N(C)[C@H](CCc1nc(C(=O)N[C@H](CCC(=O)O)Cc2ccccc2)cs1)C(C)C [pre-tubulysin-825]
anti-proliferation effects (HL-60 cells; 5 days, MTT): no anti-proliferation effects
IC50 (HL-60 cells; Homo sapiens, HL-60): 600 ng/mL (≈ 974 nM)

CC[C@H](C)[C@H](NC(=O)[C@H]1CCCCN1C)C(=O)N(COC(=O)CC(C)C)[C@H](C[C@@H](OC(C)=O)c1nc(C(=O)N[C@@H](Cc2ccccc2)C[C@H](C)C(=O)O)cs1)C(C)C [Tubulysin D, reference compound]
IC50 (COS-7; Chlorocebus sabaeus, read-out: IC50): 0.0337 ng/mL (≈ 0.0407 nM)
IC50 (L929 [1]; Mus musculus, read-out: IC50): 0.017 ng/mL (≈ 0.0205 nM)
IC50 (A431; Homo sapiens, A-431, read-out: IC50): 0.0119 ng/mL (≈ 0.0144 nM)
IC50 (A549; Homo sapiens, read-out: IC50): 0.0056 ng/mL (≈ 0.00676 nM)
IC50 (HEK293T; Homo sapiens, HEK-293T, read-out: IC50): 0.0104 ng/mL (≈ 0.0126 nM)
IC50 (HL-60; Homo sapiens, read-out: IC50): 0.0028 ng/mL (≈ 0.00338 nM)
IC50 (HepG2; Homo sapiens, read-out: IC50): 0.0066 ng/mL (≈ 0.00797 nM)
IC50 (K562; Homo sapiens, read-out: IC50): 0.0222 ng/mL (≈ 0.0268 nM)
IC50 (KB3.1; Homo sapiens, KB 3-1, read-out: IC50): 0.0182 ng/mL (≈ 0.022 nM)
IC50 (SH-SY5Y; Homo sapiens, read-out: IC50): 0.0113 ng/mL (≈ 0.0136 nM)
IC50 (SW480; Homo sapiens, read-out: IC50): 0.0037 ng/mL (≈ 0.00447 nM)
IC50 (U937 [2]; Homo sapiens, U-937, read-out: IC50): 0.0025 ng/mL (≈ 0.00302 nM)
IC50 ([3]; Homo sapiens, U2OS, read-out: IC50): 0.0342 ng/mL (≈ 0.0413 nM)
IC50 [3, 6]: 0.034 ng/mL (≈ 0.0411 nM)
concentration for complete de-polymerization (disappearance) of interphase microtubules (PtK2 cells): 50 pg/mL
potency relative to tubulysin A (cancer cell lines): approximately 10 folds

CC[C@H](C)[C@H](NC(=O)[C@H]1CCCCN1C)C(=O)N(COC(=O)CC(C)C)[C@H](C[C@@H](OC(C)=O)c1nc(C(=O)N[C@@H](Cc2ccc(O)cc2)C[C@H](C)C(=O)O)cs1)C(C)C [Tubulysin A, reference compound]
IC50 (HL-60 cells; HL-60, serial dilutions up to 100 ng/ml, 5 days, MTT): 0.0019 ng/mL (≈ 0.00225 nM)
IC50 value (HL-60 cells; HL-60 human acute myeloid leukemia (Table 1)): 0.002 ng/mL (≈ 0.00237 nM)
IC50 value (L929 [4]): 0.15 ng/mL (≈ 0.178 nM)
IC50 value (U937 [5]): 0.002 ng/mL (≈ 0.00237 nM)
IC50 (COS-7): 0.0806 ng/mL (≈ 0.0955 nM)
IC50 (L929 [1]): 0.21 ng/mL (≈ 0.249 nM)
IC50 (A431): 0.1002 ng/mL (≈ 0.119 nM)
IC50 (A549): 0.0856 ng/mL (≈ 0.101 nM)
IC50 (HEK293T): 0.0523 ng/mL (≈ 0.062 nM)
IC50 (HL-60): 0.0479 ng/mL (≈ 0.0567 nM)
IC50 (HepG2): 0.12 ng/mL (≈ 0.142 nM)
IC50 (K562): 0.40 ng/mL (≈ 0.474 nM)
IC50 (KB3.1): 0.16 ng/mL (≈ 0.19 nM)
IC50 (SH-SY5Y): 0.21 ng/mL (≈ 0.249 nM)
IC50 (SW480): 0.0187 ng/mL (≈ 0.0222 nM)
IC50 (U937 [2]): 0.0461 ng/mL (≈ 0.0546 nM)
IC50 [3]: 0.19 ng/mL (≈ 0.225 nM)
IC50 ([3]; comparison with prior art compounds): 0.19 ng/mL (≈ 0.225 nM)
concentration for complete de-polymerization (disappearance) of interphase microtubules (PtK2 cells): 500 pg/mL

CCOC(=O)/C(C)=C/[C@H](Cc1ccccc1)NC(=O)c1csc(CC[C@H](C(C)C)N(C)C(=O)[C@@H](NC(=O)[C@H]2CCCCN2C)[C@@H](C)CC)n1 [AU939]
IC50 [3, 6]: 339 ng/mL (≈ 487 nM)

CC[C@H](C)[C@H](NC(=O)[C@H]1CCCCN1C)C(=O)N(C)[C@H](CCc1nc(C(=O)N[C@@H](Cc2ccccc2)C(=O)O)cs1)C(C)C [pre-tubulysin-815]
anti-proliferation effects (HL-60 cells; 5 days, MTT): no anti-proliferation effects
IC50 (HL-60 cells; Homo sapiens, HL-60): 700 ng/mL (≈ 1110 nM)

CC[C@H](C)[C@H](NC(=O)[C@H]1CCCCN1C)C(=O)N(C)[C@H](CCc1nc(C(=O)N[C@H](/C=C(\C)C(=O)O)Cc2ccccc2)cs1)C(C)C [AU954]
IC50 [3, 6]: 82 ng/mL (≈ 123 nM)

CC[C@H](C)[C@H](NC(=O)[C@H]1CCCCN1C)C(=O)N(C)[C@H](CCc1nc(C(=O)O)cs1)C(C)C [pre-tubulysin-814]
anti-proliferation effects (HL-60 cells; 5 days, MTT): no anti-proliferation effects
cytotoxic activity (HL-60 cells; at concentration up to 11 μg/ml, listed as Pre-tub-814): did not show any cytotoxic activity
